Results as given in patent US12702478B2, “Devices, methods, and compositions for thermal acceleration and drug delivery” (Rhode Island Hospital, priority 2015, dated 2026).
Where two headings read alike, the source gives them in different places. Values belong to the molecule of their own block, whether it stands above or below them.

Assays:
[1] = Doxorubicin diffusion from coagulated gel in agarose phantom; format: physicochemical; details: 2.0 mg in 0.5 mL gel
Experimental: Method 1: In a 1% (w/v) agarose gel as phantom, HSA-based #1 gel (0.5 mL) with Doxorubicin HCl (2.0 mg) was placed 1 cm away from a MW antenna at ambient temperature. The ablation was performed at 60 W for 10 minutes (MicroThermX/Varian 915 MHz). Post ablation, the cooled agarose gel was left at ambient temperature for 48 hours for diffusion of the Doxorubicin.
The solution contained 1 (w/v) % agarose phantom. The ablation conditions: 915 MHz, 60 W for 10 minutes.

[2] = In vitro elution of Resiquimod from coagulated gel (HPLC); format: physicochemical
Experimental: Methods 3 Absorbance values of three known concentrations of Resiquimod samples (4.3×10−6, 4.3×10−5 and 8.6×10−5 M) were obtained to established a linear relationship (FIG. 23A) using the HPLC system as described in Methods 2 except wavelength=328 nm and the retention time=3.31 min.

[3] = In vitro elution of Doxorubicin from coagulated gel (HPLC); format: physicochemical; details: for part of drug eluted out over time: citrate buffer pH 7, 36.5° C.
Experimental: Methods 2 Absorbance values of three known concentrations of Doxorubicin samples (1.0×10^−6, 9.5×10^−6 and 1.9×10^−5 M) were obtained to established a linear relationship (FIG. 4, Left) using a HPLC system: Agilant 1100; mobile phase=a gradient of ACN and H2O with 1% ammonium acetate; wavelength=500 nm; flow rate=1 mL/min. Each data point was an average of three measurements. Under the HPLC conditions, the retention time of Doxorubicin was at 4.00 minutes. Separately, three different amounts of Doxorubicin (2.1, 1.1 and 0.6 mg) were mixed with HSA-based #1 gel (0.5 mL each) and ablated using the conditions described in Aim 1. Once complete, the coagulated gel impregnated with Doxorubicin was collected and placed in a citrate buffer (5 mL, pH 7) in a water bath at 36.5° C. At 1, 3, 24 and 72 h, a small quantity of solution (0.5 mL) was passed through a membrane filter (cutoff 7 KDa) and injected into the HPLC system to quantify the eluted Doxorubicin. Each data point was triplicated.

[4] = Dielectric properties by open-ended coaxial measurement; format: physicochemical
Description: Materials or formulations with a high dipole moment as potential thermal accelerants can be expressed by the ε″ and σ values for thermal ablation (radiofrequency, microwave, irreversible electroporation. A person skilled in the art will recognize that in order to show the capacity of a material, or formulations of a material, quantitatively as a thermal accelerant, the concept of permittivity can be employed in lieu of, or in addition to, evaluation of dipole moment. For example, materials can be tested using an electromagnetic wave of sinusoidal frequency ω, which is directed at a subject sample by an open-ended coaxial cable of a low-power oscillator. Measurement of the magnitude and phase of the fraction of the wave which is reflected allows deduction of the complex permittivity of the tissue.
The complex permittivity is defined as ε*=ε′−jε″, where ε′ is the real permittivity and ε″ is the imaginary permittivity. […] The real permittivity is also known as the dielectric constant. The imaginary permittivity is also called the loss factor and can be written ε″=σ/(ωε0), so as to incorporate the electrical conductivity of the material, […]. The quantity a directly scales the power deposited per unit volume according to the following expression, ARD=σ|E|^2, where ARD is Absorption Rate Density (watt m^−3), […] is electrical conductivity (ohm^−1 m^−1), and JEJ is the magnitude of the electrical field (volt m^−1) produced by the microwave antenna at the point of interest in the tissue.

[5] = at 100° C.; cited from earlier work
[6] = tested on: rat; details: cited from earlier work
[7] = reference values; cited from earlier work

diffusion to the surrounding area of the phantom ([1]; 6 h after ablation): apparent
diffusion out of coagulated gel ([1]; immediately after ablation): no diffusion out of the protein meshwork
part of drug eluted out over time ([2]; 0.063 mg): 87%
part of drug eluted out over time ([2]; 0.63 mg): 64%
part of drug eluted out over time ([2]; 1.25 mg): 57%
part of drug eluted out over time ([3]; 0.6 mg in 0.5 mL gel): 87%
part of drug eluted out over time ([3]; 1.1 mg in 0.5 mL gel): 64%
part of drug eluted out over time ([3]; 2.1 mg in 0.5 mL gel): 57%
elution rate over time ([3]; 1, 3, 24, 72 h): highest at 1 h
SMILES: COc1cccc2c1C(=O)c1c(O)c3c(c(O)c1C2=O)C[C@@](O)(C(=O)CO)C[C@@H]3O[C@H]1C[C@H](N)[C@H](O)[C@H](C)O1 [Doxorubicin]

SMILES: CO [MeOH, methanol]
Dielectric constant (ε′) ([4]; 915 MHz): 31.2
electrical conductivity (σ) ([4]; 915 MHz): 0.1 mho/m
Dielectric constant (ε′) ([4]; 2450 MHz): 22.2
electrical conductivity (σ) ([4]; 2450 MHz): 0.1

SMILES: O [Water]
Dielectric constant (ε′) ([4]; 915 MHz): 78.3
electrical conductivity (σ) ([4]; 915 MHz): 0 mho/m
Dielectric constant (ε′) ([4]; 2450 MHz): 76.9
electrical conductivity (σ) ([4]; 2450 MHz): 0.1

SMILES: [Cl-].[Cs+] [CsCl, cesium chloride]
solubility in water [5]: 2.7 kg/L
LD50 ([6]; iv): 910 mg/kg
LD50 ([6]; oral): 2,600 mg/kg

SMILES: O [Water (deionized)]
Electrical Conductivity (σ) of reference media [7]: 5 × 10^−6 S/m
